Data on ten compounds can be found in patent publication US9481648B2, “Kinase inhibitors” (Respivert Limited, priority 2013, dated 2016).

GSK 3α, sequence (P49840 whole entry): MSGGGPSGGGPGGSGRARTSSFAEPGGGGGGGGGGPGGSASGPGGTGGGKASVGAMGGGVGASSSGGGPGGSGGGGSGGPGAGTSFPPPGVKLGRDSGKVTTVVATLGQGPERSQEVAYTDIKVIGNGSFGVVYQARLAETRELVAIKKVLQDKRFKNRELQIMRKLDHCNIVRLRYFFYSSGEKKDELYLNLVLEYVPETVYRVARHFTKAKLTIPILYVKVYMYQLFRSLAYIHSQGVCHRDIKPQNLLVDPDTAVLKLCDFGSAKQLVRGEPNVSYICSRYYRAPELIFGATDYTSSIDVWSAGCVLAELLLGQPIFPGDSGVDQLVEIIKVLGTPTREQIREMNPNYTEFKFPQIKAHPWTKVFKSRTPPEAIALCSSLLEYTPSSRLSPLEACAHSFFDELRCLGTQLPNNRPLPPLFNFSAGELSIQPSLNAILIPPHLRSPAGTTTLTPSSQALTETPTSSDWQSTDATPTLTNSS

For this assay, the target named is GSK 3α (Homo sapiens (Human), UniProt P49840). The assay is described as follows: GSK 3α enzyme inhibition (FRET, Z-LYTE; Method 2). In kind it is biochemical. Particulars: read-out: IC50 Values for Enzyme Inhibition GSK3α. The protocol:
The enzyme inhibitory activities of compounds disclosed herein are determined by FRET using synthetic peptides labelled with both donor and acceptor fluorophores (Z-LYTE, Invitrogen Ltd., Paisley, UK).
The inhibitory activities of compounds of the invention against the GSK 3α enzyme isoform (Invitrogen), are evaluated by determining the level of activation I phosphorylation of the target peptide. The GSK3-α protein (500 ng/mL, 2.5 μL) is mixed with the test compound (2.5 μL at either 4 μg/mL, 0.4 μg/mL, 0.04 μg/mL, or 0.004 μg/mL) for 2 hr at RT. The FRET peptide (8 μM, 2.5 μL), which is a phosphorylation target for GSK3α, and ATP (40 μM, 2.5 μL) are then added to the enzyme\compound mixture and the resulting mixture incubated for 1 hr. Development reagent (protease, 5 μL) is added for 1 hr prior to detection in a fluorescence microplate reader (Varioskan® Flash, ThermoFisher Scientific).
In all cases, the site-specific protease cleaves non-phosphorylated peptide only and eliminates the FRET signal. Phosphorylation levels of each reaction are calculated using the ratio of coumarin emission (donor) over fluorescein emission (acceptor), for which high ratios indicate high phosphorylation and low ratios indicate low phosphorylation levels.
This method follows the same steps as Method 1 above, but utilises a shorter period of mixing of the test compound (105 minutes instead of 2 hours) with the GSK3-α protein. In addition, the concentrations of test compound employed are either 10 μg/mL, 1 μg/mL, 0.1 μg/mL, or 0.01 μg/mL
For the compound `COc1cc(Nc2cc(Oc3ccc(NC(=O)Nc4cc(C(C)(C)C)cc(NS(C)(=O)=O)c4OC)c4ccccc34)ccn2)cc(C(=O)NCCN2CCCC2)c1` [83(d), 3-((4-((4-(3-(5-(tert-butyl)-2-methoxy-3-(methysulfonamido)phenyl)ureido)naphthalen-1-yl)oxy)pyridin-2-yl)amino)-5-methoxy-N-(2-(pyrrolidin-1-yl)ethyl)benzamide], the IC50 is 1.02 µM.

Turning to `COc1cc(Nc2cc(Oc3ccc(NC(=O)Nc4cc(C(C)(C)C)cc(NS(C)(=O)=O)c4OC)c4ccccc34)ccn2)cc(C(=O)NCCN2CCCCC2)c1` [83(e), 3-((4-((4-(3-(5-(tert-butyl)-2-methoxy-3-(methylsulfonamido)phenyl)ureido)naphthalen-1-yl)oxy)pyridin-2-yl)amino)-5-methoxy-N-(2-(piperidin-1-yl)ethyl)benzamide], the IC50 is 1.59 µM.

As for `COc1c(NC(=O)Nc2ccc(Oc3ccnc(Nc4ccccc4)c3)c3ccccc23)cc(C(C)(C)C)cc1NS(=O)(=O)N1CCOCC1` [83(f), N-(5-(tert-butyl)-2-methoxy-3-(3-(4-((2-(phenylamino)pyridin-4-yl)oxy)naphthalen-1-yl)ureido)phenyl)morpholine-4-sulfonamide], the IC50 stood at 14.4 µM.

With `COCCOCCOCCOc1cc(Nc2cc(Oc3ccc(NC(=O)Nc4cc(C(C)(C)C)cc(C(=O)NCCN)c4OC)c4ccccc34)ccn2)cc(OC)c1` [83(g), N-(2-aminoethyl)-5-(tert-butyl)-2-methoxy-3-(3-(4-((2-((3-methoxy-5-(2-(2-(2-methoxy-ethoxy)ethoxy)ethoxy)phenyl)amino)pyridin-4-yl)oxy)naphthalen-1-yl)ureido)benzamide], the IC50 came to 2.21 µM.

Take `COc1c(NC(=O)Nc2ccc(Oc3ccnc(Nc4ccccc4)c3)c3ccccc23)cc(C(C)(C)C)cc1C(=O)NC1CCN(C)CC1` [84(b), 3-[[4-[(2-Anilino-4-pyridyl)oxy]-1-naphthyl]carbamoylamino]-5-tert-butyl-2-methoxy-N-(1-methyl-4-piperidyl)benzamide]: the half-maximal inhibitory concentration (IC50) was 4.51 µM.

As for `COc1c(NC(=O)Nc2ccc(Oc3ccnc(Nc4ccccc4)c3)c3ccccc23)cc(C(C)(C)C)cc1C(=O)N[C@@H]1CCOC1` [84(c), 3-[[4-[(2-Anilino-4-pyridyl)oxy]-1-naphthyl]carbamoylamino]-5-tert-butyl-2-methoxy-N-[(3R)-tetrahydrofuran-3-yl]benzamide], the IC50 was 4.95 µM.

Consider `COc1cc(CO)cc(Nc2cc(Oc3ccc(NC(=O)Nc4cc(C(C)(C)C)cc(NS(C)(=O)=O)c4OC)c4ccccc34)ccn2)c1` [84(f), 1-[5-tert-Butyl-3-(methanesulfonamido)-2-methoxyphenyl]-3-[4-[[2-[3-(hydroxymethyl)-5-methoxyanilino]-4-pyridyl]oxy]-1-naphthyl]urea], for which the IC50 is 3.4 µM.

Turning to `C#Cc1cc(Nc2nccc(Oc3ccc(NC(=O)Nc4cc(C(C)(C)C)cc(C(N)=O)c4OC)c4ccccc34)n2)cc(C(=O)NCCN2CCOCC2)c1` [85(g), 5-tert-Butyl-3-[[4-[2-[3-ethynyl-5-(2-morpholinoethylcarbamoyl)anilino]-pyrimidin-4-yl]oxy-1-naphthyl]carbamoylamino]-2-methoxy-benzamide], the half-maximal inhibitory concentration (IC50) was determined as 0.437 µM.

In the case of `COc1cc(Nc2cc(Oc3ccc(NC(=O)Nc4cc(C(C)(C)C)cc(NS(C)(=O)=O)c4OC)c4ccccc34)ccn2)cc(C(=O)NCCN2CC[S+]([O-])CC2)c1` [85(j), 3-[[4-[[4-[[5-tert-Butyl-3-(methanesulfonanido)-2-methoxyphenyl]-carbamoylamino]-1-naphthyl]oxy]-2-pyridyl]amino]-5-methoxy-N-[2-(1-oxo-1,4-thiazinan-4-yl)ethyl]benzamide], the IC50 worked out at 0.736 µM.

On to `COCCOCCOCCOc1cc(Nc2nccc(Oc3ccc(NC(=O)Nc4cc(C(C)(C)C)ccc4OC)c4ccccc34)n2)cc(OC)c1` [Example 8, 1-(5-(tert-Butyl)-2-methoxhenv)-3-(4-((2-((3-methoxy-5-(2-(2-(2-methoxyethoxy)ethoxy)-ethoxy)phenyl)amino)pyrimidin-4-yl)oxy)naphthalen-1-yl)urea], for which the IC50 was determined as 9.94 µM.
